Data set [1] has as its target T1, Metabotropic glutamate receptor 5 (Homo sapiens, UniProt P41594). The data set is described as follows: Displacement of radioligand from human mGluR5b expressed in HEK293 cells at 1 uM. The format is cell-based.
Target sequence in this assay (P41594 21-1212 limits assumed): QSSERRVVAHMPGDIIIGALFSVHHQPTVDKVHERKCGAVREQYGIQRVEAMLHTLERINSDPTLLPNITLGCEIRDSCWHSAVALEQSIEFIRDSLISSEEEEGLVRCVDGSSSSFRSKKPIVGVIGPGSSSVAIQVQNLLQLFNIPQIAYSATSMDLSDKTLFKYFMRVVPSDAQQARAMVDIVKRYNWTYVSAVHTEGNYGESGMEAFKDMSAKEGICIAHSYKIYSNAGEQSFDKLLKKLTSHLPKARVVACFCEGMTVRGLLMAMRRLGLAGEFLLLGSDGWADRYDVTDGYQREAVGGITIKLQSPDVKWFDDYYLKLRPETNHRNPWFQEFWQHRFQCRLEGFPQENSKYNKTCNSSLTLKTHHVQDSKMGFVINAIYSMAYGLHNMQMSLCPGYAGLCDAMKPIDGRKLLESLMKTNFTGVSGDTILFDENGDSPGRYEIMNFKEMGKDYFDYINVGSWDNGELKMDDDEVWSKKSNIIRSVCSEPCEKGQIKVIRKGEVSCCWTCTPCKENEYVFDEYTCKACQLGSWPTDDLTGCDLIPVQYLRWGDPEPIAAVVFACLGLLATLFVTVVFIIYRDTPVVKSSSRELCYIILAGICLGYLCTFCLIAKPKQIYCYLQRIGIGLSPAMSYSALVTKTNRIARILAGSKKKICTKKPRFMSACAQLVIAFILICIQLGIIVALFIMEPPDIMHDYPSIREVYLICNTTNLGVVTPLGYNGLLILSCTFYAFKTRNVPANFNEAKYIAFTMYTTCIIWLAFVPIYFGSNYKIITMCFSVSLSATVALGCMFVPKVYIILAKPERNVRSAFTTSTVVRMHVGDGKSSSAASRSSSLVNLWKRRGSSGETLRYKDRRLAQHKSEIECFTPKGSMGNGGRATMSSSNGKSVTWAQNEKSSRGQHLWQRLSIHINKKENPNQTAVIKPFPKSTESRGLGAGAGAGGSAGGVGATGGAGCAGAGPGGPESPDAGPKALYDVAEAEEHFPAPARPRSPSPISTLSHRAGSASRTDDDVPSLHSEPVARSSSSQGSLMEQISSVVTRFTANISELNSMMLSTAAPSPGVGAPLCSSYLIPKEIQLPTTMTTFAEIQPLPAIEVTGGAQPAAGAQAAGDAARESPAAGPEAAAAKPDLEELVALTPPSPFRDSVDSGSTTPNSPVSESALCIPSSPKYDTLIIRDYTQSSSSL
Data set [2] deals with Metabotropic glutamate receptor 1 (Rattus norvegicus, UniProt P23385). The data set is described as follows: Displacement of [3H]9-Dimethylamino-3-(4-methoxy-phenyl)-3H-pyrido[3',2':4,5]thieno[3,2-d]pyrimidin-4-one from mGluR1 in rat cerebellum membrane. Type of data set: cell membranes. Background: In a radioligand displacement assay an active substance lowers the binding of a labelled ligand.

The target of data set [3] is T1, Metabotropic glutamate receptor 5. The experiment in a line: Antagonist activity at human mGluR5b expressed in HEK293 cells assessed by measuring intracellular calcium by FLIPR assay. The format is functional, cell-based.
Target sequence in this assay (P41594 whole entry): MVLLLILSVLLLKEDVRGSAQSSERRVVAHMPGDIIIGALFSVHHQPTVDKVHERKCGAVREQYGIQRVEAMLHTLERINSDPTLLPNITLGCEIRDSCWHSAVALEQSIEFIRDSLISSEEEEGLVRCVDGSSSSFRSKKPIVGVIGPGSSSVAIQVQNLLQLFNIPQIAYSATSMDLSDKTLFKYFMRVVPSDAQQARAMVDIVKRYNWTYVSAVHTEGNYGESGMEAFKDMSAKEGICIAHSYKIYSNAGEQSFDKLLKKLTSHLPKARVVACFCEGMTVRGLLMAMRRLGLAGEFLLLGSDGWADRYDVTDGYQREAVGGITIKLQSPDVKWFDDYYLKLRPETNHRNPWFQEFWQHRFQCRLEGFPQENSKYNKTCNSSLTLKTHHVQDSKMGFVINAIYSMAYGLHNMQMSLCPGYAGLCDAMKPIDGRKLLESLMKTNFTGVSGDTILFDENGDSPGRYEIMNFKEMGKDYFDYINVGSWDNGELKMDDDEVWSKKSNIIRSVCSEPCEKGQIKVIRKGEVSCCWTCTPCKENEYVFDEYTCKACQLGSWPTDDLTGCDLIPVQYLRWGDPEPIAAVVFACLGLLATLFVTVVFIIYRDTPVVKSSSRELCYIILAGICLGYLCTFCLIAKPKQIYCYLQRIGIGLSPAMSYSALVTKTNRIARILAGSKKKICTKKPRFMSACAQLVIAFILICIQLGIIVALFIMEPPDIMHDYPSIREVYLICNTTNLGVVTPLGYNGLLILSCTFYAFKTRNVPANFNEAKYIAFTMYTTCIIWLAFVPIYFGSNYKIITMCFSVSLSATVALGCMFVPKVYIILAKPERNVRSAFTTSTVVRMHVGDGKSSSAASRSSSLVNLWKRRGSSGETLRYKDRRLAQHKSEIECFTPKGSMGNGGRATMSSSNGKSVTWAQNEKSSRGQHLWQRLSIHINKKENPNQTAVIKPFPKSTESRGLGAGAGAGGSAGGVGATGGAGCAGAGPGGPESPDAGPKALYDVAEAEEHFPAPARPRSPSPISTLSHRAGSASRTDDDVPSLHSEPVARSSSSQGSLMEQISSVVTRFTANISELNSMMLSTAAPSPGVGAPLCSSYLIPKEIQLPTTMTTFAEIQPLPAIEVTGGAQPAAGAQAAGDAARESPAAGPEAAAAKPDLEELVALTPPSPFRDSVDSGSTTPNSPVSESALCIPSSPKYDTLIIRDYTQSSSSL
In data set [4] the target is Metabotropic glutamate receptor 1 (Homo sapiens, UniProt Q13255). The experiment in a line: Antagonist activity at human mGluR1a expressed in CHO cells assessed by measuring intracellular calcium by FLIPR assay. The format is functional, cell-based.
Data set [5] in a line: AUC (0 to 6 hrs) in rat at 10 mg/kg, po by CARRS. The format is ADME, organism-based. Further details: time < 6 hr, dose 10 mg/kg, route oral. As to conditions: plasma.
The nature of data set [6]: Tmax in rat at 10 mg/kg, po by CARRS. Type of data set: ADME, organism-based. Also on record: dose 10 mg/kg, route oral. As to conditions: in vivo.
A short description of data set [7]: Cmax in rat at 10 mg/kg, po by CARRS. The format is ADME, organism-based. Further details: dose 10 mg/kg, route oral. As to conditions: in vivo.
Data set [8] relates to Rattus norvegicus. The data set is described as follows: Effect on neuropathic pain in SNL rat model assessed as paw withdrawal threshold at 10 mg/kg, po. Type of data set: functional.
In data set [9] the test system is Rattus norvegicus. The experiment in a line: Inhibition of neuropathic pain in SNL rat model at 10 mg/kg, po. Type of data set: functional.
Data set [10] concerns Rattus norvegicus. The data set is described as follows: Effect on neuropathic pain in orally dosed SNL rat model. The format is functional. As to conditions: po.

These results are taken from ChEMBL document CHEMBL1137615, “Discovery of orally efficacious tetracyclic metabotropic glutamate receptor 1 (mGluR1) antagonists for the treatment of chronic pain” (J Med Chem, 2007).

Molecules are shown by their SMILES.

Sequence of Metabotropic glutamate receptor 1 (Rattus norvegicus, UniProt P23385) (P23385 whole entry): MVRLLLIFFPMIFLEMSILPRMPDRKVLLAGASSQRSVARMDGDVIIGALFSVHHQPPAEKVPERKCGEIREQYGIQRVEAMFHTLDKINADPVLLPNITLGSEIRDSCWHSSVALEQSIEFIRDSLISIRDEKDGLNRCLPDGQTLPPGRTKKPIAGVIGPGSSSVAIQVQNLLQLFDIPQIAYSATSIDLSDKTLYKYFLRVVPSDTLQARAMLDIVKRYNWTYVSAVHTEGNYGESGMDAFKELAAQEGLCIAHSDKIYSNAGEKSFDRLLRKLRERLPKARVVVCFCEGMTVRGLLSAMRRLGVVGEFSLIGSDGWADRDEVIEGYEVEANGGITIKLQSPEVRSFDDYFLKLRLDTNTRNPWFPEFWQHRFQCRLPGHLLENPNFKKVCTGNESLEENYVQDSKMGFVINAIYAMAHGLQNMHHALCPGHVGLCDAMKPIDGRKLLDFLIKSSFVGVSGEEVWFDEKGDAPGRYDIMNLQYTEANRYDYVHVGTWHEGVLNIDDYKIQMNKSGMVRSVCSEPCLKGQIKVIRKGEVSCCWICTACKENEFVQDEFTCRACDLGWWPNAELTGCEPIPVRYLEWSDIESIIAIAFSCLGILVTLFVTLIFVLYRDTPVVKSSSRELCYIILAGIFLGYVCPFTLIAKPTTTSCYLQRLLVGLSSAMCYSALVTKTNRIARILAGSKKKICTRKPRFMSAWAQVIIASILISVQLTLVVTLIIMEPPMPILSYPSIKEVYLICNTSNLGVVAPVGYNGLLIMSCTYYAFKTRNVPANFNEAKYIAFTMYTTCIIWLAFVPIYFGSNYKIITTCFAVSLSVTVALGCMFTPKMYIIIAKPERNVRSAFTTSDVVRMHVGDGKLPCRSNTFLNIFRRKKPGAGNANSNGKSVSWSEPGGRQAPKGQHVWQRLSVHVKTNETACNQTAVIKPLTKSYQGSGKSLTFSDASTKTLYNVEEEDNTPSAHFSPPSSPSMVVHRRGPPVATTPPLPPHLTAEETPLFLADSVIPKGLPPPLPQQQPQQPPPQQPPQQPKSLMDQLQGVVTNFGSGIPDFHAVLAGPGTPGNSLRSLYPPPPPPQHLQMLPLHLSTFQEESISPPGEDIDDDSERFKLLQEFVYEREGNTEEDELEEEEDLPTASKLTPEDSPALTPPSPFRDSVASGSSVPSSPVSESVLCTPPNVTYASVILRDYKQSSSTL
Sequence of Metabotropic glutamate receptor 1 (Homo sapiens, UniProt Q13255) (Q13255 whole entry): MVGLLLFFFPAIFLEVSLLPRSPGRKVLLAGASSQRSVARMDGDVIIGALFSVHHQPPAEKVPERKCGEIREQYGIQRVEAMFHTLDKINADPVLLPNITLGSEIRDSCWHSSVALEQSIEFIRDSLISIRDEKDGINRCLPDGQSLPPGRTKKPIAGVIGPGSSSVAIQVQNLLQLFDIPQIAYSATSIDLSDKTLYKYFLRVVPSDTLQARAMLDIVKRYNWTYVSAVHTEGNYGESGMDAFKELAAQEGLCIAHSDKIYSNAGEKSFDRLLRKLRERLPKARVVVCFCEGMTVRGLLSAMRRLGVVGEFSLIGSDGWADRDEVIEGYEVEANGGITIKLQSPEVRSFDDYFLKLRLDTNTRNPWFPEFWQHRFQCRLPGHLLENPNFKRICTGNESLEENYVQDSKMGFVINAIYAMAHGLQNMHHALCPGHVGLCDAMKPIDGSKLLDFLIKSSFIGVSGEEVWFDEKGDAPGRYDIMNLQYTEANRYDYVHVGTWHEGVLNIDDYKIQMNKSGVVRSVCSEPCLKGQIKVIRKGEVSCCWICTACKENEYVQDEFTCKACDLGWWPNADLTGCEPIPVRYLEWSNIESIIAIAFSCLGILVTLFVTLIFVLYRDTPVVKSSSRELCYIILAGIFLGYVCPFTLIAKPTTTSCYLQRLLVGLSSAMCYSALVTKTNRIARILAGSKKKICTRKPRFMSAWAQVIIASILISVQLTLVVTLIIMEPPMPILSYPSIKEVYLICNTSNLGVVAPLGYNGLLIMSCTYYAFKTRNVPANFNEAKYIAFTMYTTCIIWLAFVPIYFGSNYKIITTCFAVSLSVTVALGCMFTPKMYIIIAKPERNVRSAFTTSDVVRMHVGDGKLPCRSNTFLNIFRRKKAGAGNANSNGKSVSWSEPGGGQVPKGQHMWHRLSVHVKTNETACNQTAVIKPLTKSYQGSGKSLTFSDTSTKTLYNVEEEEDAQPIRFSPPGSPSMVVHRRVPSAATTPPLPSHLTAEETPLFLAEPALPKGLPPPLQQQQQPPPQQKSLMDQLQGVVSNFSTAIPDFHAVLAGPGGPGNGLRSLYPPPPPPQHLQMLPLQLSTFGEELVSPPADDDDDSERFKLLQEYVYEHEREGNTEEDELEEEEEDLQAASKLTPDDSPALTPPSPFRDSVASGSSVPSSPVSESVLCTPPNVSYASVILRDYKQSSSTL

As a reminder, the Ki is the dissociation constant of the complex between target and ligand, obtained from inhibition or displacement. High values mean lower affinity, low ones higher affinity. As to `Cn1cnc2cnc3sc4c(=O)n(-c5ccc(Cl)cc5)cnc4c3c21`, in [1], the Activity stood at 0.15%. Besides, affinity in data set [2] was put at a Ki of 104 nM.
Broadly, the IC50 is the concentration needed to halve the response being measured. Regarding `C[C@H]1COc2cnc3sc4c(=O)n(-c5ccc(Cl)cc5)cnc4c3c2N1`, the half-inhibitory concentration (IC50) in [3] was over 1000 nM. The compound also displayed a Ki in data set [2] of 0.5 nM.
As for `COc1ccc(-n2cnc3c(sc4ncc5c(c43)NC[C@@H](C)O5)c2=O)cc1`, the IC50 is 2.4 nM in data set [4] and over 1000 nM in data set [3]. This compound displayed a Ki in data set [2] of 0.3 nM.
For the compound `C[C@@H]1COc2cnc3sc4c(=O)n(-c5ccc(Cl)cc5)cnc4c3c2N1`, the IC50 in data set [4] is 24.4 nM; in data set [3], over 1000 nM. Besides, affinity in data set [2] was put at a Ki of 9.1 nM.
A word on the AUC(0-t): it is exposure summed from dosing to a finite time, without extrapolation to infinity. As usually defined, the Tmax is the time from dosing to the highest level. Usually Cmax stands for the maximum level reached in the sampled fluid or tissue. For `COc1ccc(-n2cnc3c(sc4ncc5cc[nH]c5c43)c2=O)cc1`, in data set [3], the IC50 was over 10000 nM. Moreover, the inhibition constant (Ki) in [2] stood at 28.6 nM. The compound further had an area under the curve AUC(0-t) at 6 h in [5] of 1.32 µM·h. In addition, the time of peak concentration (Tmax) in data set [6] came to 2 h. Further, the peak concentration (Cmax) in data set [7] amounted to 394 nM. Further, the Activity in the data set on Rattus norvegicus [8] worked out at 6.6 g. In the data set on Rattus norvegicus [9], this compound showed an MPE of 39%.
Take `CSc1nc2c(cnc3sc4c(=O)n(-c5ccc(C)cc5)cnc4c32)s1`: the IC50 in data set [4] worked out at 636 nM. In addition, the Activity in [1] was -2%. Further, in [2], the Ki stood at 788 nM.
On to `COc1ccc(-n2cnc3c(sc4nccc(N(C)C)c43)c2=O)cc1`, for which the figures for the 50% inhibitory concentration (IC50) in data set [4] and in data set [3] were 9.5 nM and 10000 nM, respectively. The same compound registered a Ki in data set [2] of 7.9 nM. For the same compound, the AUC(0-t) at 6 h in [5] is 1.93 µM·h. Besides, in data set [6], the time of peak concentration (Tmax) amounted to 0.5 h. The compound also returned a Cmax in [7] of 564 nM. For the same compound, the Activity in the data set with Rattus norvegicus [8] was found to be 13.2 g. Moreover, the MPE in the data set on Rattus norvegicus [9] amounted to 87%.
As usually defined, the ED50 is the midpoint of the dose-response relation. Low readings indicate an effect at a small dose, high ones a need for a large dose. For `O=c1c2sc3ncc4c(c3c2ncn1-c1ccc(Cl)cc1)NCCO4`, in data set [3], the IC50 was over 1000 nM. In [2], this compound displayed an inhibitory constant (Ki) of 0.4 nM. Also, the AUC(0-t) at 6 h in [5] worked out at 0.366 µM·h. In addition, the time to peak (Tmax) in data set [6] worked out at 1 h. In data set [7], the peak level (Cmax) was 198 nM. In addition, the Activity with Rattus norvegicus [8] is reported as 11.8 g. The same compound returned an MPE with Rattus norvegicus [9] of 73%. This compound yielded an ED50 in the data set on Rattus norvegicus [10] of 5.1 mg/kg.
As to `C[C@@H]1CNc2c(cnc3sc4c(=O)n(-c5ccc(Cl)cc5)cnc4c23)O1`, the half-maximal inhibitory concentration (IC50) in data set [3] is over 1000 nM. Besides, the affinity in [2] corresponds to a Ki of 0.2 nM. This compound also returned an AUC(0-t) at 6 h in data set [5] of 5.19 µM·h. In addition, the time to peak (Tmax) in data set [6] turned out to be 0.5 h. Further, in data set [7], the peak level (Cmax) was 1420 nM. The Activity in the data set on Rattus norvegicus [8] stood at 10.9 g. In the data set with Rattus norvegicus [9], this compound came in with an MPE of 68%.
In the case of `O=c1c2sc3ncc4nc[nH]c4c3c2ncn1-c1ccc(Cl)cc1`, the Activity in data set [1] was -1.7%. In [2], the inhibitory constant (Ki) stood at 10.8 nM.
In the case of `Cc1ccc(-n2cnc3c(sc4ncc5cc[nH]c5c43)c2=O)cc1`, the IC50 in data set [3] is over 1000 nM. Besides, in data set [2], the inhibition constant (Ki) stood at 16.9 nM. The compound also registered an AUC(0-t) at 6 h in data set [5] of 0.035 µM·h. Besides, in data set [6], the Tmax was 0.5 h. This compound returned a Cmax in [7] of 71 nM.
As to `Cc1ccc(-n2cnc3c(sc4ncc5cn[nH]c5c43)c2=O)cc1`, the IC50 in data set [4] amounted to 16.8 nM. Further, the Activity in data set [1] was 5%. Moreover, affinity in data set [2] was put at a Ki of 17.8 nM.
Turning to `Cc1ccc(-n2cnc3c(sc4ncc5sc(=S)[nH]c5c43)c2=O)cc1`, the half-maximal inhibitory concentration (IC50) in [4] is 541 nM. For the same compound, the Activity in data set [1] is -10%. Further, the affinity in data set [2] corresponds to a Ki of 1000 nM.
Take `CNc1c(Br)cnc2sc3c(=O)n(-c4ccc(Cl)cc4)cnc3c12`: the IC50 in data set [4] was found to be 5.9 nM.
Take `O=c1c2sc3ncc4cn[nH]c4c3c2ncn1-c1ccc(Cl)cc1`: in [1], the Activity was -12%. Moreover, in [2], the inhibition constant Ki came to 19.6 nM.
Take `COc1ccc(-n2cnc3c(sc4ncc5c(c43)NCCO5)c2=O)cc1`: in data set [3], the IC50 is over 1000 nM. In data set [2], the Ki was determined as 1 nM. For the same compound, in [5], the AUC(0-t) at 6 h stood at 1.56 µM·h. The time of peak concentration (Tmax) in data set [6] worked out at 2 h. This compound gave a Cmax in data set [7] of 467 nM. Further, the Activity with Rattus norvegicus [8] is reported as 8.5 g. Also, the MPE in the data set on Rattus norvegicus [9] is listed as 50%. In the data set on Rattus norvegicus [10], this compound registered a median effective dose (ED50) of 8 mg/kg.
On to `Cc1ccc(-n2cnc3c(sc4ncc5sc(=O)[nH]c5c43)c2=O)cc1`, for which, in [4], the IC50 amounted to 446 nM. The Activity in data set [1] was -8%. For the same compound, the inhibitory constant (Ki) in data set [2] was found to be 1000 nM.
Consider `O=c1c2sc3ncc4cc[nH]c4c3c2ncn1-c1ccc(Cl)cc1`, for which, in data set [1], the Activity was found to be 1.7%. Affinity in data set [2] was put at a Ki of 2.4 nM. The compound further yielded an exposure AUC(0-t) at 6 h in [5] of 0.018 µM·h. Further, the time of peak concentration (Tmax) in [6] turned out to be 0.5 h. In data set [7], this compound showed a peak concentration (Cmax) of 37 nM.
Regarding `Cc1ccc(-n2cnc3c(sc4ncc5c(c43)NC[C@@H](C)O5)c2=O)cc1`, in [3], the IC50 came to 609 nM. Moreover, the inhibition constant (Ki) in data set [2] was 0.6 nM.
As to `Cc1ccc(-n2cnc3c(sc4ncc5c(c43)NCCO5)c2=O)cc1`, the IC50 in data set [3] is 702 nM. In [2], this compound had a Ki of 0.5 nM. This compound also registered an exposure AUC(0-t) at 6 h in data set [5] of 0.077 µM·h. Further, the time to peak (Tmax) in data set [6] is 1 h. Also, the highest concentration (Cmax) in [7] is 70 nM.
Turning to `C[C@H]1CNc2c(cnc3sc4c(=O)n(-c5ccc(Cl)cc5)cnc4c23)O1`, the half-inhibitory concentration (IC50) in data set [3] is over 1000 nM. The Ki in data set [2] worked out at 1.5 nM. The AUC(0-t) at 6 h in [5] worked out at 8.43 µM·h. In addition, in [6], the Tmax worked out at 2 h. In [7], the maximum concentration (Cmax) was 2050 nM. The Activity in the data set on Rattus norvegicus [8] is on record as 7.7 g. In the data set on Rattus norvegicus [9], this compound displayed an MPE of 44%.
